Key:
Assay type in all cases: functional
T47D = assay: Cytotoxicity against human T47D cells assessed as cellular growth at 10 uM by SRB assay
Hs-578T = assay: Cytotoxicity against human Hs578T cells assessed as cellular growth at 10 uM by SRB assay
PC-3 = assay: Cytotoxicity against human PC3 cells assessed as cellular growth at 10 uM by SRB assay
RXF 393 = assay: Cytotoxicity against human RXF393 cells assessed as cellular growth at 10 uM by SRB assay
786-0 = assay: Cytotoxicity against human 786-0 cells assessed as cellular growth at 10 uM by SRB assay
SK-OV-3 = assay: Cytotoxicity against human SKOV3 cells assessed as cellular growth at 10 uM by SRB assay
UACC-62 = assay: Cytotoxicity against human UACC62 cells assessed as cellular growth at 10 uM by SRB assay
UACC-257 = assay: Cytotoxicity against human UACC257 cells assessed as cellular growth at 10 uM by SRB assay
SK-MEL-5 = assay: Cytotoxicity against human SK-MEL-5 cells assessed as cellular growth at 10 uM by SRB assay
MDA-MB-435 = assay: Cytotoxicity against human MDA-MB-435 cells assessed as cellular growth at 10 uM by SRB assay
M14 = assay: Cytotoxicity against human M14 cells assessed as cellular growth at 10 uM by SRB assay
LOX IMVI = assay: Cytotoxicity against human LOXIMVI cells assessed as cellular growth at 10 uM by SRB assay
U-251 = assay: Cytotoxicity against human U251 cells assessed as cellular growth at 10 uM by SRB assay
SNB-19 = assay: Cytotoxicity against human SNB19 cells assessed as cellular growth at 10 uM by SRB assay
SF-539 = assay: Cytotoxicity against human SF539 cells assessed as cellular growth at 10 uM by SRB assay
KM12 = assay: Cytotoxicity against human KM12 cells assessed as cellular growth at 10 uM by SRB assay
HCT-116 = assay: Cytotoxicity against human HCT116 cells assessed as cellular growth at 10 uM by SRB assay
COLO 205 = assay: Cytotoxicity against human COLO205 cells assessed as cellular growth at 10 uM by SRB assay
NCI-H322M = assay: Cytotoxicity against human NCI-H322M cells assessed as cellular growth at 10 uM by SRB assay
RPMI-8226 = assay: Cytotoxicity against human RPMI8226 cells assessed as cellular growth at 10 uM by SRB assay

Row | SMILES | Activity (T47D) | Activity (Hs-578T) | Activity (PC-3) | Activity (RXF 393) | Activity (786-0) | Activity (SK-OV-3) | Activity (UACC-62) | Activity (UACC-257) | Activity (SK-MEL-5) | Activity (MDA-MB-435) | Activity (M14) | Activity (LOX IMVI) | Activity (U-251) | Activity (SNB-19) | Activity (SF-539) | Activity (KM12) | Activity (HCT-116) | Activity (COLO 205) | Activity (NCI-H322M) | Activity (RPMI-8226)
1 | Clc1ccccc1Nc1nnc(-c2ccncc2)s1 | 89.46% | 94.94% | 97.24% | 107.3% | 80.21% | 104.92% | 95.3% | 107.89% | 97.75% | 93.62% | 103.83% | 110.09% | 102.87% | 99.81% | 107.62% | 107.17% | 101.59% | 114.33% | 93.72% | 89.16%
2 | CC1(C)CC(=O)c2cc3c(N)c(C(=O)Nc4ccc(Cl)cc4)sc3nc2C1 | 96.17% | 108.83% | 104.63% | 116.26% | 98.68% | 106.15% | 105.25% | 91.35% | 96.03% | 108.85% | 107.38% | 108.76% | 103.14% | 113.58% | 114.18% | 116.67% | 108.43% | 116.82% | 113.55% | 102.77%
3 | Clc1ccc(-c2nc(-c3cccs3)no2)cc1 | 66.67% | 136.36% | 103.14% | 112.7% | 99.58% | 106.04% | 89.8% | 109.98% | 90.07% | 111.2% | 105.16% | 93.13% | 90.3% | 103.81% | 92.56% | 92.39% | 92.37% | 113.89% | 113.5% | 93.69%
4 | O=C(NCc1cccnc1)c1sc2cc([N+](=O)[O-])ccc2c1Cl | 84.08% | 92.59% | 101.92% | 111.54% | 96.95% | 91.06% | 89.48% | 92.34% | 96.88% | 95.22% | 108.24% | 102.15% | 90.3% | 96.96% | 103.86% | 96.39% | 99.66% | 118.05% | 101.48% | 94.49%
5 | COc1cc(/C=c2/sc3nc4ccccc4n3c2=O)cc(I)c1O | 82.96% | 107.68% | 95.27% | 116.35% | 97.48% | 96.7% | 79.91% | 105.01% | 81.43% | 97.54% | 107.28% | 93.01% | 101.21% | 108.08% | 112.47% | 80.63% | 98.72% | 103.31% | 109.21% | 74.12%
6 | Cc1ccc2c(c1)N/C(=C/C(=O)c1ccc(Cl)cc1)C(=O)O2 | 106.85% | 113.45% | 87.2% | 111.43% | 117.98% | 110.03% | 93.82% | 97.03% | 102.04% | 105.53% | 108.88% | 100.45% | 100.94% | 105.39% | 106.89% | 102.59% | 105.71% | 118.18% | 114.58% | 64.3%
7 | O=C1N=C(c2ccccc2)S/C1=C\c1ccc2c(c1)OCO2 | 94.58% | 94.3% | 85.65% | 115.74% | 100.46% | 98.47% | 91.01% | 92.39% | 96.34% | 103.92% | 111.64% | 102.92% | 90.93% | 98.6% | 95.81% | 92.95% | 104.4% | 101.56% | 108.21% | 92.67%
8 | Cc1ccc(S(=O)(=O)Oc2ccc(-c3cnc4ccccc4n3)cc2)cc1 | 87.98% | 110.2% | 90.9% | 103.74% | 96.77% | 104.03% | 94.5% | 102.87% | 84.98% | 96.62% | 123.34% | 99.82% | 89.92% | 123.73% | 113.49% | 105.85% | 106.69% | 135.44% | 113.67% | 88.46%
9 | Cc1ccc(NC(=O)c2sc3nc4c(cc3c2N)C(=O)CCC4)c(Br)c1 | 89.73% | 100.84% | 102.4% | 118.46% | 107.4% | 92.59% | 95.44% | 96.22% | 92.03% | 94.29% | 105.12% | 102.77% | 94.7% | 100.23% | 108.91% | 97.82% | 106.38% | 113.39% | 103.11% | 109.86%
10 | O=S(=O)(Oc1ccc(-c2cnc3ccccc3n2)cc1)c1ccc2ccccc2c1 | 91.09% | 105.04% | 87.31% | 110% | 96.4% | 102.69% | 82.67% | 114.11% | 84.35% | 95.36% | 100.37% | 115.1% | 104.05% | 99.88% | 119.65% | 101.08% | 94.69% | 121.42% | 137.19% | 89.09%
11 | N#Cc1ccc(-n2nnc3ccccc32)cc1C#N | 86.31% | 105.04% | 100.51% | 100.39% | 99.49% | 98.76% | 94.5% | 89.4% | 97.62% | 85.25% | 106.26% | 99.41% | 91.31% | 112.27% | 101.14% | 96.37% | 102.06% | 104.26% | 111.4% | 100.67%
12 | Clc1ccc(-c2nc(-c3cccs3)no2)c(Cl)c1 | 51.7% | 96.13% | 83.22% | 107.35% | 97.42% | 93.87% | 88.98% | 76.15% | 83.92% | 110.83% | 100.46% | 103.49% | 90.09% | 104.48% | 107.53% | 99.27% | 94.56% | 106.21% | 120.06% | 86.03%
13 | O=C(Nc1nc2ccc(Cl)cc2s1)c1ccc(Cl)cc1Cl | 95.96% | 113.99% | 97.1% | 112.15% | 95.62% | 105.26% | 96.19% | 95.43% | 89.76% | 94.59% | 115.13% | 98.46% | 93.57% | 109.5% | 101.57% | 110.91% | 105.32% | 114.96% | 105.38% | 91.09%
14 | Cc1ccc(CNC(=O)c2[nH]c3ccccc3c2Cl)cc1 | 84.33% | 95.86% | 93.19% | 109.98% | 102.13% | 92.6% | 100.21% | 101.14% | 99.25% | – | 115.09% | 97.73% | 92.16% | 105.35% | 110.44% | 89.46% | 107.58% | 99.99% | 111.04% | 101.73%
15 | CC1(C)CCc2cc(-c3ccn(S(=O)(=O)c4ccccc4Cl)n3)ccc2O1 | 58.8% | 102.19% | 70.67% | 93.11% | 71.72% | 91.9% | 81.14% | 99.38% | 75.14% | 98.73% | 78.84% | 83.91% | 67.67% | 88.07% | 87.92% | 62.1% | 68.63% | 88.88% | 126.42% | 70.97%
16 | Oc1ccccc1-c1nc(-c2cccs2)no1 | 76.43% | 93.55% | 85.02% | 117.42% | 101.07% | 99.86% | 89.11% | 96.64% | 88.2% | 112.76% | 106.76% | 100.28% | 89.74% | 102.55% | 104.64% | 100.01% | 104.63% | 111.09% | 116.66% | 87.52%
17 | O=S(=O)(Oc1ccc(-c2cnc3ccccc3n2)cc1)c1ccccc1 | 86.45% | 145.79% | 89.87% | 102.24% | 92.9% | 106.76% | 78.48% | 100.15% | 92.11% | 96.88% | 106.54% | 95.98% | 92.1% | 102.07% | 94.38% | 111.44% | 94.15% | – | 107.81% | 87.36%

Reference: ChEMBL document CHEMBL2202954, “The effect of PLC-γ2 inhibitors on the growth of human tumour cells” (2012)
